Test results: US20170217976A1, “6-(AMINO ACID)-MORPHINAN DERIVATIVES IN COMBINATION WITH PERMEATION […] FOR USE AS AN ORALLY, […], TRA[…] NASALLY AD[…]” (C[…], priority 2014, published 2017)
Read-outs that look alike come from different tables or passages of the source.

What was measured:
MOR = target: T1, MOR (Rattus norvegicus, UniProt P33535); assay: Opioid receptor binding, MOR, rat brain membranes
T1 construct: from tissue

DOR = target: T2, DOR (Rattus norvegicus, UniProt P33533); assay: Opioid receptor binding, DOR, rat brain membranes
T2 construct: from tissue

KOR = target: T3, KOR (Cavia porcellus, UniProt P41144); assay: Opioid receptor binding, KOR, guinea pig brain membranes
T3 construct: from tissue

[1] = Binding Ki MOR, Table 2-6, rat brain membranes
[2] = Binding Ki DOR, Table 2-6, rat brain membranes
[3] = Binding Ki KOR, Table 2-6, guinea pig brain membranes
[4] = Binding Ki (nM) MOR, in vitro binding assay, rat brain membranes
[5] = Binding Ki MOR, Table 1-4, rat brain membranes
[6] = Binding Ki (nM) DOR, in vitro binding assay, rat brain membranes
[7] = Binding Ki DOR, Table 1-4, rat brain membranes
[8] = Binding Ki (nM) KOR, in vitro binding assay, guinea pig brain membranes
[9] = Binding Ki KOR, Table 1-4, guinea pig brain membranes
[10] = in vitro binding assay, rat brain membranes, read-out: Binding Ki (nM) MOR
[11] = in vitro binding assay, rat brain membranes, read-out: Binding Ki (nM) DOR
[12] = in vitro binding assay, guinea pig brain membranes, read-out: Binding Ki (nM) KOR

T1 sequence (P33535 whole entry): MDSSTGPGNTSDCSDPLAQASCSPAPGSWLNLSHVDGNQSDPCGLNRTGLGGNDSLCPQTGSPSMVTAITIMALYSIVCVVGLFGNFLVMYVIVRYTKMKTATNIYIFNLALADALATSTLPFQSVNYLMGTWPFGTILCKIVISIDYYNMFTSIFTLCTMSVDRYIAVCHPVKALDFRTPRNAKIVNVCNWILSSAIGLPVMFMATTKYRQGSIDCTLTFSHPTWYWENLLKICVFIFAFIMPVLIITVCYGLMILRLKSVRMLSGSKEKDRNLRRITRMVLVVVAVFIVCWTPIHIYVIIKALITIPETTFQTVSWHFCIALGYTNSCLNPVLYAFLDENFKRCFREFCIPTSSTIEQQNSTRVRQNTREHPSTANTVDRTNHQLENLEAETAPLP
T3 sequence (P41144 whole entry): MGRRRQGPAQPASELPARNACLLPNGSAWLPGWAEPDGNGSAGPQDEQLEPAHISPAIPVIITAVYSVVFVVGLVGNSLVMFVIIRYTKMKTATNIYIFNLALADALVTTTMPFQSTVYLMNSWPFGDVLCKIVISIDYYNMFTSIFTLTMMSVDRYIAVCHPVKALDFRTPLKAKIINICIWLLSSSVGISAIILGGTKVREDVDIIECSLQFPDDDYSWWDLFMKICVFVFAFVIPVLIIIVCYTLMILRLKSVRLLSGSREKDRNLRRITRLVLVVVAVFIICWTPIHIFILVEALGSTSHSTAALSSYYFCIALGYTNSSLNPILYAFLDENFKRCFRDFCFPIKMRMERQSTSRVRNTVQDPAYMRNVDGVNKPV
T2 sequence (P33533 whole entry): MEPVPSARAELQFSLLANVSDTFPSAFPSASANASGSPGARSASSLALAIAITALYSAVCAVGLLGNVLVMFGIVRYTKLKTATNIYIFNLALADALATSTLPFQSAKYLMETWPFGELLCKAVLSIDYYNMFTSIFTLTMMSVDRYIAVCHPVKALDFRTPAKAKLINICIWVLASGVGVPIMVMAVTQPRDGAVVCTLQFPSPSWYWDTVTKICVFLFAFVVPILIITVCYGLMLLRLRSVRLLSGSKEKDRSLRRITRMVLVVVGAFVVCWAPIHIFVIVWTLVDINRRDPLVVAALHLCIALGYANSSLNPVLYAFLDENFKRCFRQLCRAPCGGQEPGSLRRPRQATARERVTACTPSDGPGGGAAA

Row | SMILES | Ki (MOR; [4]) [nM] | Ki (DOR; [6]) [nM] | Ki (KOR; [8]) [nM] | Ki (DOR; [11]) [nM] | Ki (KOR; [12]) [nM] | further results
1 | CO[C@@]12CC[C@@H](N[C@@H](CC(=O)O)C(=O)O)[C@@H]3Oc4c(O)ccc5c4[C@@]31CCN(CC1CC1)[C@@H]2C5 [Compound 73] |  |  |  |  |  | Ki (MOR; Binding Ki MOR, Table 1-6, rat brain membranes): 2.24 nM; Ki (MOR; [1]): 2.24 nM; Ki (DOR; Binding Ki DOR, Table 1-6, rat brain membranes): 0.64 nM; Ki (DOR; [2]): 0.64 nM; Ki (KOR; Binding Ki KOR, Table 1-6, guinea pig brain membranes): 11.7 nM; Ki (KOR; [3]): 11.7 nM
2 | CC[C@H](C)[C@H](N[C@@H]1CC[C@@]2(OC)[C@H]3Cc4ccc(O)c5c4[C@@]2(CCN3C)[C@H]1O5)C(=O)O [Compound 43] | 1.46 | 1.3 | 163 |  |  | Ki (MOR; [5]): 1.46 nM; Ki (DOR; [7]): 1.3 nM; Ki (KOR; [9]): 163 nM
3 | CO[C@@]12CC[C@@H](NCCCC(=O)OC(C)(C)C)[C@@H]3Oc4c(O)ccc5c4[C@@]31CCN(C)[C@@H]2C5 [16-t-Bu ester] |  |  |  | 1.63 | 8.79 | Ki (MOR; [10]): 0.54 nM
4 | CO[C@@]12CC[C@@H](N[C@H](C(=O)OC(C)(C)C)C(C)C)[C@@H]3Oc4c(O)ccc5c4[C@@]31CCN(C)[C@@H]2C5 [29-t-Bu ester] | 1.03 | 0.86 | 214 |  |  | 
5 | CC(C)(C)OC(=O)[C@H](Cc1ccccc1)N[C@@H]1CC[C@@]2(O)[C@H]3Cc4ccc(O)c5c4[C@@]2(CCN3CC2CC2)[C@H]1O5 [60-tBu ester] |  |  |  |  |  | Ki (MOR; [1]): 5.49 nM; Ki (DOR; [2]): 1.12 nM; Ki (KOR; [3]): 17.6 nM
6 | CO[C@@]12CC[C@@H](NCC(=O)OC(C)(C)C)[C@@H]3Oc4c(O)ccc5c4[C@@]31CCN(C)[C@@H]2C5 [HS731-t-Bu ester] | 1.3 |  |  | 0.68 | 56.2 | 
7 | CO[C@@]12CC[C@@H](N[C@@H](CCCCN)C(=O)O)[C@@H]3Oc4c(O)ccc5c4[C@@]31CCN(C)[C@@H]2C5 [Compound 39] |  |  |  | 3.34 | 33.7 | Ki (MOR; Table 1-4, rat brain membranes, read-out: Binding Ki MOR): 0.53 nM; Ki (MOR; [10]): 0.53 nM; Ki (DOR; Table 1-4, rat brain membranes, read-out: Binding Ki DOR): 3.34 nM; Ki (KOR; Table 1-4, guinea pig brain membranes, read-out: Binding Ki KOR): 33.7 nM
8 | CC[C@H](C)[C@H](N[C@@H]1CC[C@@]2(OC)[C@H]3Cc4ccc(O)c5c4[C@@]2(CCN3CC2CC2)[C@H]1O5)C(=O)OC(C)(C)C [78-tBu ester] |  |  |  |  |  | Ki (MOR; [1]): 0.98 nM; Ki (DOR; [2]): 0.52 nM; Ki (KOR; [3]): 5.67 nM
9 | CO[C@@]12CC[C@@H](N[C@@H](CCC(N)=O)C(=O)O)[C@@H]3Oc4c(O)ccc5c4[C@@]31CCN(C)[C@@H]2C5 [Compound 18] | 2.48 | 4.87 | 290 |  |  | Ki (MOR; [5]): 2.48 nM; Ki (DOR; [7]): 4.87 nM; Ki (KOR; [9]): 290 nM
10 | CO[C@@]12CC[C@@H](N[C@@H](CC(C)C)C(=O)O)[C@@H]3Oc4c(O)ccc5c4[C@@]31CCN(CC1CC1)[C@@H]2C5 [Compound 77] |  |  |  |  |  | Ki (MOR; [1]): 1.96 nM; Ki (DOR; [2]): 1.13 nM; Ki (KOR; [3]): 11 nM
11 | CO[C@@]12CC[C@@H](N[C@@H](CC(N)=O)C(=O)O)[C@@H]3Oc4c(O)ccc5c4[C@@]31CCN(C)[C@@H]2C5 [Compound 27] | 1.26 | 2.25 | 103 |  |  | Ki (MOR; [5]): 1.26 nM; Ki (DOR; [7]): 2.25 nM; Ki (KOR; [9]): 103 nM
12 | CO[C@@]12CC[C@@H](N[C@@H](C)C(=O)OC(C)(C)C)[C@@H]3Oc4c(O)ccc5c4[C@@]31CCN(C)[C@@H]2C5 [2-t-Bu ester] | 1.13 | 1.36 | 93.6 |  |  | 
13 | CO[C@@]12CC[C@@H](N[C@@H](CC(N)=O)C(=O)OC(C)(C)C)[C@@H]3Oc4c(O)ccc5c4[C@@]31CCN(C)[C@@H]2C5 [27-t-Bu ester] | 0.6 | 0.66 | 75.8 |  |  | 
14 | CO[C@@]12CC[C@H](N[C@@H](Cc3ccc(O)cc3)C(=O)OC(C)(C)C)[C@@H]3Oc4c(O)ccc5c4[C@@]31CCN(C)[C@@H]2C5 [9-t-Bu ester] | 0.59 |  |  | 0.42 | 12.3 | 
15 | CO[C@@]12CC[C@H](N[C@@H](CCCCN)C(=O)OC(C)(C)C)[C@@H]3Oc4c(O)ccc5c4[C@@]31CCN(C)[C@@H]2C5 [38-t-Bu ester] |  |  |  | 0.092 | 0.89 | Ki (MOR; [10]): 0.17 nM
16 | CO[C@@]12CC[C@H](N[C@@H](CO)C(=O)OC(C)(C)C)[C@@H]3Oc4c(O)ccc5c4[C@@]31CCN(C)[C@@H]2C5 [36-t-Bu ester] | 0.2 | 0.17 | 6.2 |  |  | 
17 | CO[C@@]12CC[C@@H](NCC(=O)OC(C)(C)C)[C@@H]3Oc4c(O)ccc5c4[C@@]31CCN(CC1CC1)[C@@H]2C5 [62-Bu ester] |  |  |  |  |  | Ki (MOR; Table 2-6, rat brain membranes, read-out: Binding Ki MOR): 2.66 nM; Ki (DOR; Table 2-6, rat brain membranes, read-out: Binding Ki DOR): 0.96 nM; Ki (KOR; Table 2-6, guinea pig brain membranes, read-out: Binding Ki KOR): 8.36 nM
18 | CO[C@@]12CC[C@@H](N[C@@H](Cc3c[nH]c4ccccc34)C(=O)OC(C)(C)C)[C@@H]3Oc4c(O)ccc5c4[C@@]31CCN(C)[C@@H]2C5 [46-t-Bu ester] |  |  |  | 0.36 | 9.89 | Ki (MOR; [10]): 0.26 nM
19 | CO[C@@]12CC[C@@H](NCCC(=O)OC(C)(C)C)[C@@H]3Oc4c(O)ccc5c4[C@@]31CCN(C)[C@@H]2C5 [22-t-Bu ester] | 0.35 | 0.23 | 7.54 |  |  | 
